Measured values as given in US11718628B2, “SREBP inhibitors comprising a 6-membered central ring” (Capulus Therapeutics, LLC, priority 2018, dated 2023).

Tests used:
[1] = tested on: liver gene expression (ACACA, ACLY, FASN, LSS, PNPLA3); experiment: Liver gene expression in mice after oral administration; type: in vivo; conditions: vs vehicle
Experimental: (§1) The pharmacodynamic properties of selected compounds were evaluated in mice. The animals were housed in cages with clean bedding, and maintained and monitored for good health in accordance with Test Facility SOPs and at the discretion of the laboratory animal veterinarian. Certified rodent diet was provided. Food and water was available ad libitum. Environmental controls for the animal room were set to maintain a temperature of 22° C. to 25° C., humidity of 40-70% RH, and a 12-hour light/[…]. Normal healthy animals certified by the attending veterinarian were selected and acclimatized for minimum three days prior to initiation of study. Animals were identified with body markings.
(§2) Aliquots of the compounds being evaluated were weighed and triturated with 0.5% methylcellulose (with the addition of 5% N-methyl pyrrolidone when required to remove clumping, as for Z-806) to an appropriate dose concentration. Vials were labeled with the information about study number, test item, concentration and date of preparation. A description of appearance of formulation was recorded (e.g., color, turbidity, etc.). The composition of formulation vehicle was recorded. An aliquot of each dose solution was taken before the dosing began and after dosing was finished, and stored at approximately −20° C. or below for subsequent analysis. The animals were dosed orally through oral gavage needle, and time of dosing was recorded.
(§3) Liver Collection at 6 h or 24 h: Immediately after blood withdrawal for pharmacokinetic evaluation (at 6 or at 24 h), liver tissue was collected without perfusion. Animals were euthanized using carbon dioxide gas in a CO2 chamber. The whole blood was drained by cutting the both side jugular vein and abdominal aorta. The liver was separated out. All the liver samples were divided in two parts. The first part (200 mg approx.) was snap frozen using liquid nitrogen as soon as possible. These samples were immediately transferred to −80° C. for storage. The remaining part was weighed and used for bioanalysis.
RNA Processing and Gene Expression Analysis: Liver Tissue RNA was harvested with the RNEasy kit and 20-100 ng used to synthesize cDNA with random primers following the manufacturer's protocol. Quantitative PCR was performed on 1 pg to 100 ng cDNA for the following genes: ACACA, ACLY, FASN, LSS, PNPLA3. Gene expression levels were determined using ΔΔCT method comparing treated to vehicle treated samples as a baseline, and fold change calculated. The average value for all 5 genes above was averaged and termed to Total Fold Change The results from this evaluation are presented in Table 8.

[2] = Log D by octanol/aqueous buffer partitioning; type: physicochemical; conditions: pH 7.4, 1-octanol/buffer
Experimental: The Log D of selected compounds was evaluated by octanol/aqueous buffer partitioning. 500 μL of organic phase (1-octanol) was added to each well of a 2 mL deep well plate, followed by 500 μL of buffer and 15 μL of test compound in DMSO (0.15 mM). The plate was vortexed for 10 seconds and incubated at room temperature for 1 hr on a plate shaker at 200 rpm. After incubation, the samples were allowed to equilibrate for 20 min and then centrifuged at 4000 rpm for 30 min for complete phase separation. The distribution of test compound in buffer and octanol phase was analyzed by HPLC-UV. Log D=Log (Area of Octanol/Area of Buffer).

[3] = Plasma and liver compound levels in mice after oral administration; type: in vivo
Experimental: as §1, §2
After dosing, the mice were anesthetized using gaseous anesthesia. Blood samples were collected through a capillary, guided in retro-orbital plexus, at 6 h or at 24 h. Approximately 100 uL of blood was collected from each mouse, in pre-labeled tubes. The collected blood was stored on ice prior to centrifugation. Blood samples were then centrifuged within 1 hour of collection to separate plasma. Centrifugation was conducted at 2500×g for 15 minutes at 4° C. The plasma was separated and transferred to pre-labeled micro-centrifuge tubes and promptly frozen at −80±10° C. until bioanalysis.
as §3

## CC(C)(C)c1cc(-c2cncc(-c3ccc(C(=O)N4CCC(O)CC4)cc3Cl)c2)ccn1 [Compound Z-725]
[1]; 10 mpk
  Total Gene FC Time (6 h): +++ (0-0.509 = +++)
  Total Gene FC Time (24 h): + (>0.751 = +)
[1]; 30 mpk
  Total Gene FC Time (6 h): +++ (0-0.509 = +++)
  Total Gene FC Time (24 h): + (>0.751 = +)
[2]
  LogD: 3.56
[3]; 10 mpk
  Liver ng/mg (6 h): 100 to 1000 ng/mg
  Plasma ng/mL (6 h): <100 ng/mL
  Liver ng/mg 24 h: 100 to 1000 ng/mg
  Plasma ng/mL (24 h): <100 ng/mL
[3]; 30 mpk
  Liver ng/mg (6 h): 100 to 1000 ng/mg
  Plasma ng/mL (6 h): 100 to 1000 ng/mL
  Liver ng/mg 24 h: <100 ng/mg
  Plasma ng/mL (24 h): <100 ng/mL
